Structures can show the parent of a compound that is named as a salt.
Key:
[1] = system: Squalene synthase; assay: Inhibition of Squalene synthase; format: biochemical; conditions: rat liver microsomal protein, 15 min, 37° C.
Method: (a) Inhibition of Squalene synthase
In this test, the ability of a compound to prevent the formation of squalene from a radioactive substrate (tritiated farnesyl pyrophosphate) is assessed.
The test compound is incubated at a concentration of 25 micromolar in 200 μl of a buffered solution containing potassium phosphate (50 mM), MgCl2 (4.95 mM), KF (9.9 mM), NADPH (0.9 mM) and rat liver microsomal protein (20 μg). Rat liver microsomes are prepared by the method described in published European Patent Application No. 324,421 and stored in liquid nitrogen prior to assay. Assay vials are kept at 37° C. throughout the incubation.
The reaction is started with the addition of the substrate (1-[^3 H]-farnesyl pyrophosphate), final concentration […], and stopped after 15 minutes reaction time with the addition of 50 μl of 4% KOH. The reaction products are separated from unreacted substrate after application to a C-18 octadecyl 1ccBond column (Analytichem Int product No. 617101). An aqueous fraction is eluted with 250 μl of 0.1M KOH. Squalene is then eluted with 1.0 ml 10% ethylacetate in hexane and radioactivity determined. The difference in radioactivity in the presence and absence of the test compound is used to determine the level of inhibition. […] The IC50 can then be determined from a plot of percentage inhibition against concentration of test compound.

[2] = system: de novo hepatic cholesterol synthesis; assay: Acute rat cholesterol synthesis assay; conditions: acute in vivo, female rats, 14C-acetate ip, plasma cholesterol specific radioactivity, route for this compound not given
Method: (b) Acute rat cholesterol synthesis assay.
This is an acute in vivo test in the rat to measure de novo hepatic cholesterol synthesis from exogenously administered ^14 C-acetate.
Female rats (35-55 g) are housed in reverse lighting conditions (red light from 0200 h-1400 h) for a period of about 2 weeks prior to test. Animals are allowed free access to chow and drinking water throughout this period. At test, animals should weigh 125-150 g.
Test compounds may be administered by oral gavage, dissolved or suspended in 0.5% polysorbate, or by ip or iv dosing. Control animals receive vehicle alone. After 1 hour the rats are injected ip with 25 μCi [2-^14 C]-acetate (NEN DUPONT. specific activity, 45-60mCi/mmol NEC-085H, or AMERSHAN specific activity, 50-60 mCi/mmol CFA 14) in a volume of 0.25 ml saline (100 μCi/ml). After a further hour, rats are terminally anaesthetised with halothane and a blood sample obtained from the abdominal vena cava.
1ml of plasma is lyophilised and then saponified in 2ml ethanolic KOH (1 part 33% KOH, 9 parts ethanol) at […] for 2 hours. After addition of an equal quantity of water, non-saponifiable lipids are extracted with two 5ml volumes of hexane. The hexane extracts are evaporated to dryness and the residues dissolved in ethanol to determine cholesterol specific radioactivity. ED50 values can be determined in the standard way.

## CCCCOc1ccc(OCCCNC(C)C)c(CCC)c1 [Example 2, N-isopropyl-3-(4-butoxy-2-propylphenoxy)propylamine]
[1]; at a concentration of 25 μM
  inhibition of squalene synthase: about 74%

## CCCc1cc(NC(C)=O)ccc1OCCCNC(C)C [Example 95, 3-n-propyl-4-(3-[N-isopropylamino]propoxy)-acetanilide hydrochloride]
[2]
  ED50: 27 mg/kg
[1]; at 2.5 μM
  inhibition of squalene synthase: about 86%

Source: patent US5866611A, “Therapeutic amines” (Zeneca Limited, priority 1993, dated 1999)
